Data as given in patent publication US20050054006A1, “Combinatorial fluorescent library based on the styryl scaffold” (New York University, priority 2003, published 2005).
Where “and” joins values, the source holds several entries; their conditions need not be identical. Equal entries are not always repeated. Entries after “also recorded” stand apart in the source; their conditions may differ.

Assays:
[1] = Fluorescence excitation/emission of the styryl dye library compounds; assay type: physicochemical
[2] = test system: UACC-62 human melanoma cells; assay: Organelle localization in live cells by fluorescence microscopy; settings: live UACC-62 cells, fluorescence microscope λex=405, 490, 570 nm; λem>510 nm

| SMILES | EM(nm) ([1]; EX/EM peak no. 1) | EX(nm) ([1]; EX/EM peak no. 1) | LOCALIZATION [2] | EM(nm) ([1]; EX/EM peak no. 2) | EX(nm) ([1]; EX/EM peak no. 2) |
| --- | --- | --- | --- | --- | --- |
| CN(C)c1ccc(C=Cc2cccc[n+]2C)cc1.[I-] [Compound C19] | 580 nm | 460 (broad) nm | MITO | – | – |
| COc1ccc2ccccc2c1C=Cc1cccc[n+]1C.[I-] [Compound C23] | 530 nm | 420 nm | CYTO | – | – |
| COc1ccc2ccccc2c1/C=C/c1c(C)ccc[n+]1C.[I-] [Compound D23] | 510 nm | 420(broad) nm | CYTO | – | – |
| Cc1ccc[n+](C)c1C=CC=Cc1ccc(N(C)C)cc1.[I-] [Compound D37] | 650 nm | 470(broad) nm | MITO | – | – |
| CCc1ccc(C=Cc2ccc(N(C)C)cc2)[n+](C)c1.[I-] [Compound E19] | 580 nm | 460(broad) nm | MITO | – | – |
| CCc1ccc(C=Cc2c(OC)ccc3ccccc23)[n+](C)c1.[I-] [Compound E23] | 510 nm | 420(broad) nm | CYTO | – | – |
| CCc1ccc(C=C/C=C/c2ccc(N(C)C)cc2)[n+](C)c1.[I-] [Compound E37] | 670 nm | 520 nm | MITO and NUCLEOLI | – | – |
| C[n+]1ccc(C=Cc2c[nH]c3ccccc23)cc1Br.[I-] [Compound F24] | 550 nm | 460 nm | VESICLE | – | – |
| Cc1ccc(C=Cc2cc[n+](C)c3ccccc23)cc1.[I-] [Compound G8] | 650 nm | 440 nm | MITO | – | – |
| COc1ccccc1C=Cc1cc[n+](C)c2ccccc12.[I-] [Compound G9] | 630 nm | 430 nm | MITO | – | – |
| C[n+]1ccc(C=Cc2ccc(OCc3ccccc3)c(OCc3ccccc3)c2)c2ccccc21.[I-] [Compound G12] | 590 nm | 420-460 nm | MITO and NUCLEOLI | – | – |
| COc1ccc(C=Cc2cc[n+](C)c3ccccc23)c2ccccc12.[I-] [Compound G14] | 620 nm | 480(broad) nm | MITO | – | – |
| CC(=O)Nc1ccc(/C=C/c2cc[n+](C)c3ccccc23)cc1.[I-] [Compound G18] | 670 nm | 430 nm | MITO | – | – |
| CN(C)c1ccc(/C=C/c2cc[n+](C)c3ccccc23)cc1.[I-] [Compound G19] | 670 nm | 500 nm | MITO | – | – |
| C[n+]1ccc(C=Cc2ccccc2[N+](=O)[O-])c2ccccc21.[I-] [Compound G20] | 670 nm | 490-540 nm | MITO | – | – |
| C[n+]1ccc(/C=C/c2cccc([N+](=O)[O-])c2)c2ccccc21.[I-] [Compound G21] | 670 nm | 450-550 nm | MITO | – | – |
| COc1ccc2ccccc2c1C=Cc1cc[n+](C)c2ccccc12.[I-] [Compound G23] | 610 nm | 450-500 nm | VESICLE | – | – |
| C[n+]1ccc(/C=C/c2c[nH]c3ccccc23)c2ccccc21.[I-] [Compound G24] | 610 nm | 490 nm | MITO | – | – |
| CN(C)c1ccc(C=Cc2cc[n+](C)c3ccccc23)c2ccccc12.[I-] [Compound G27] | 720 nm | 450-550(broad) nm | MITO | – | – |
| C[n+]1ccc(C=Cc2c(F)c(F)c(F)c(F)c2F)c2ccccc21.[I-] [Compound G31] | 650 nm | 430 nm | MITO and NUCLEOLI | – | – |
| C[n+]1ccc(C=Cc2cccc3ccccc23)c2ccccc21.[I-] [Compound G32] | 560 nm | 430 nm | MITO | – | – |
| C[n+]1ccc(C=Cc2ccc3ccccc3c2)c2ccccc21.[I-] [Compound G33] | 550 nm | 360-470 nm | MITO and CYTO | – | – |
| COc1cc(OC)c(OC)cc1C=Cc1cc[n+](C)c2ccccc12.[I-] [Compound G38] | 640 nm | 420 nm | VESICLE and CYTO and NUCLEI | – | – |
| C[n+]1c(C=CCc2ccccc2)ccc2ccccc21.[I-] [Compound H1] | 640 nm | – | MITO | – | – |
| C[n+]1c(C=Cc2ccccc2Br)ccc2ccccc21.[I-] [Compound H3] | 640 nm | 530 nm | MITO | – | – |
| COc1ccccc1C=Cc1ccc2ccccc2[n+]1C.[I-] [Compound H9] | 650 nm | – | MITO | – | – |
| COc1ccc(C=Cc2ccc3ccccc3[n+]2C)cc1.[I-] [Compound H10] | 650 nm | 530 nm | MITO | – | – |

| SMILES | EM(nm) ([1]; EX/EM peak no. 1) | EX(nm) ([1]; EX/EM peak no. 1) | LOCALIZATION [2] | EM(nm) ([1]; EX/EM peak no. 2) | EX(nm) ([1]; EX/EM peak no. 2) |
| --- | --- | --- | --- | --- | --- |
| C[n+]1c(C=Cc2ccc(OCc3ccccc3)c(OCc3ccccc3)c2)ccc2ccccc21.[I-] [Compound H12] | 560 nm | 430 nm | VESICLE | – | – |
| COc1ccc(C=Cc2ccc3ccccc3[n+]2C)c2ccccc12.[I-] [Compound H14] | 590 nm | 420-520 nm | VESICLE | – | – |
| COc1ccc(C=Cc2ccc3ccccc3[n+]2C)cc1O.[I-] [Compound H15] | 610-620 nm | 420 nm | MITO | – | – |
| C[n+]1c(C=Cc2ccc(O)cc2)ccc2ccccc21.[I-] [Compound H16] | 630 nm | 450 nm | NUCLEOLI | – | – |
| C[n+]1c(C=Cc2ccc(-c3ccccc3)cc2)ccc2ccccc21.[I-] [Compound H17] | 650 nm | 430 nm | VESICLE; also recorded: NUCLEOLI | 540 nm | 420 nm |
| CC(=O)Nc1ccc(C=Cc2ccc3ccccc3[n+]2C)cc1.[I-] [Compound H18] | 650 nm | 430 nm | MITO and NUCLEOLI | – | – |
| CN(C)c1ccc(/C=C/c2ccc3ccccc3[n+]2C)cc1.[I-] [Compound H19] | 640 nm | 490(broad) nm | NUCLEOLI | – | – |
| C[n+]1c(C=Cc2ccccc2[N+](=O)[O-])ccc2ccccc21.[I-] [Compound H20] | 620 nm | – | NUCLEOLI | – | – |
| C[n+]1c(C=Cc2cccc([N+](=O)[O-])c2)ccc2ccccc21.[I-] [Compound H21] | 630 nm | 420-550 nm | MITO and NUCLEOLI | – | – |
| COc1ccc2ccccc2c1C=Cc1ccc2ccccc2[n+]1C.[I-] [Compound H23] | 580 nm | 420-480 nm | VESICLE; also recorded: NUCLEOLI | – | – |
| C[n+]1c(C=Cc2c[nH]c3ccccc23)ccc2ccccc21.[I-] [Compound H24] | 560 nm | 400-500 nm | CYTO | – | – |
| CN(C)c1ccc(C=Cc2ccc3ccccc3[n+]2C)c2ccccc12.[I-] [Compound H27] | 620 nm | 500(broad) nm | MITO | – | – |
| C[n+]1c(C=Cc2ccc3c(c2)Cc2ccccc2-3)ccc2ccccc21.[I-] [Compound H28] | 660 nm | 350-500 nm | NUCLEI | – | – |
| C[n+]1c(/C=C/c2c(F)c(F)c(F)c(F)c2F)ccc2ccccc21.[I-] [Compound H31] | 610 nm | 420 nm | MITO and NUCLEI | – | – |
| C[n+]1c(C=Cc2cccc3ccccc23)ccc2ccccc21.[I-] [Compound H32] | 660 nm | 420 nm | MITO and NUCLEOLI | – | – |
| C[n+]1c(C=Cc2ccc3ccccc3c2)ccc2ccccc21.[I-] [Compound H33] | 620 nm | 340-460 nm | MITO and NUCLEI and CYTO and VESICLE | – | – |
| C[n+]1c(C=Cc2ccc3c(c2)OCO3)ccc2ccccc21.[I-] [Compound H39] | 670 nm and 560 nm | 530 nm and 430(broad) nm | CYTO | – | – |
| COc1ccc2c(ccc(C=CCc3ccccc3)[n+]2C)c1.[I-] [Compound I1] | 630 nm | 460 nm | MITO | – | – |
| COc1ccc2c(ccc(C=Cc3ccccc3Br)[n+]2C)c1.[I-] [Compound I3] | 640 nm | 480 nm | MITO | – | – |
| COc1ccc2c(ccc(C=Cc3cccc(Br)c3)[n+]2C)c1.[I-] [Compound I4] | 620 nm | 400(broad) nm | GRANULE | – | – |
| COc1ccc(C=Cc2ccc3cc(OC)ccc3[n+]2C)cc1.[I-] [Compound I10] | 520 nm | – | CYTO and VESICLE | 640 nm | – |
| COc1ccc2c(ccc(C=Cc3ccc(OCc4ccccc4)c(OCc4ccccc4)c3)[n+]2C)c1.[I-] [Compound I12] | 560 nm | – | VESICLE | – | – |
| COc1ccc2c(ccc(C=Cc3ccc(OC)c4ccccc34)[n+]2C)c1.[I-] [Compound I14] | 580-590 nm | 460 nm | VESICLE | – | – |
| COc1ccc2c(ccc(C=Cc3ccc(O)cc3)[n+]2C)c1.[I-] [Compound I16] | – | 360 nm | VESICLE; also recorded: NUCLEOLI | 610 nm | 360-460 nm |
| COc1ccc2c(ccc(C=Cc3ccc(-c4ccccc4)cc3)[n+]2C)c1.[I-] [Compound I17] | 510 nm | – | VESICLE | – | – |
| COc1ccc2c(ccc(/C=C/c3ccc(NC(C)=O)cc3)[n+]2C)c1.[I-] [Compound I18] | 650 nm | 430(broad) nm | NUCLEOLI | – | – |
| COc1ccc2c(ccc(C=Cc3ccc(N(C)C)cc3)[n+]2C)c1.[I-] [Compound I19] | 630 nm | – | NUCLEOLI | – | – |
